Type in all cases: biochemical
One experiment has as its target T1, JAK3 (Homo sapiens, UniProt P52333).
T1 sequence (P52333 1-1124): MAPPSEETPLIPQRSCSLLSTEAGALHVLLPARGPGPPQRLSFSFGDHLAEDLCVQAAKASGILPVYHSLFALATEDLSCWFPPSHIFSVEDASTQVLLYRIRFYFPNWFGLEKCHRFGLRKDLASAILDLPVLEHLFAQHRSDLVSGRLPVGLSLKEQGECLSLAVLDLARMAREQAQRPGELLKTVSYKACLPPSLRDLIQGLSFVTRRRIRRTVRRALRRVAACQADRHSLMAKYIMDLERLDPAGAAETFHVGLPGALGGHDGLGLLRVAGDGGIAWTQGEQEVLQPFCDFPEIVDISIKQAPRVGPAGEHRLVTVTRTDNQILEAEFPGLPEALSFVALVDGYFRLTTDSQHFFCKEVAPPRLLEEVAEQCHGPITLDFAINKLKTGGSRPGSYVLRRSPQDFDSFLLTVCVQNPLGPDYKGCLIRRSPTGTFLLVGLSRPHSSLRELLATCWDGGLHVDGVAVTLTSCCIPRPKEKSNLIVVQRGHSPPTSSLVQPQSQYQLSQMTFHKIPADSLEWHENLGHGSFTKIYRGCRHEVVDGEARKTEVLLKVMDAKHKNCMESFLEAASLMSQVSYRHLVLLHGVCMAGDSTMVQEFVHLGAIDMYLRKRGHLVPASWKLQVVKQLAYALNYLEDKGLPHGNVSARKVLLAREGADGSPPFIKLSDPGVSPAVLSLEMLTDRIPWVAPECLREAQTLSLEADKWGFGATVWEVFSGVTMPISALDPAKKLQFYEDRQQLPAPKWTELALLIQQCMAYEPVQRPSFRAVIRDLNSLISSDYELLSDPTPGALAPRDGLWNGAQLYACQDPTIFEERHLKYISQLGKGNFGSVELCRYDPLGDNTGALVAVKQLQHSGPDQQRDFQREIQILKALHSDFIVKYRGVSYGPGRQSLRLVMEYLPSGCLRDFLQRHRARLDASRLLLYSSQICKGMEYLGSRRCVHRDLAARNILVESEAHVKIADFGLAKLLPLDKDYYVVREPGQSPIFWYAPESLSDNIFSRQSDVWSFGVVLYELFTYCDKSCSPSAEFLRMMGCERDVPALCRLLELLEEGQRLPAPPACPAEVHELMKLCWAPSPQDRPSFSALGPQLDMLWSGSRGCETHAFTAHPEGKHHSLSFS
Kind of experiment: Omnia assay for potency against JAK3. The settings on record: read-out: JAK3 Inhibition. The text has this:
(§1) The protocol below describes continuous-read kinase assays to measure inherent potency of compounds against active forms of EGFR (WT) and EGFR (T790M/L858R) enzymes. The mechanics of the assay platform are best described by the vendor (Invitrogen, Carlsbad, Calif.) on their website at the following URL: http://www.invitrogen.com/content.cfm?pageid=11338 or http://www.invitrogen.com/site/us/en/home/Products-and-Services/Applications/Drug-Discovery/Target-and-Lead-Identification-and-Validation/KinaseBiology/KB-Misc/Biochemical-Assays/Omnia-Kinase-Assays.html.
(§2) Briefly, 10× stocks of EGFR-WT (PV3872) from Invitrogen and EGFR-T790M/L858R (40350) from BPS Bioscience, San Diego, Calif., 1.13×ATP (AS001A) and appropriate Tyr-Sox conjugated peptide substrates (KCZI001) were prepared in 1× kinase reaction buffer consisting of 20 mM Tris, pH 7.5, 5 mM MgCl2, 1 mM EGTA, 5 mM β-glycerophosphate, 5% glycerol (10× stock, KB002A) and 0.2 mM DTT (DS001A). 5 μL of each enzyme were pre-incubated in a Corning (#3574) 384-well, white, non-binding surface microtiter plate (Corning, NY) for 30 min. at 27° C. with a 0.5 μL volume of 50% DMSO and serially diluted compounds prepared in 50% DMSO. Kinase reactions were started with the addition of 45 μL of the ATP/Tyr-Sox peptide substrate mix and monitored every 30-90 seconds for 60 minutes at λex360/λem485 in a Synergy^4 plate reader from BioTek (Winooski, Vt.). At the conclusion of each assay, progress curves from each well were examined for linear reaction kinetics and fit statistics (R^2, 95% confidence interval, absolute sum of squares). Initial velocity (0 minutes to ˜30 minutes) from each reaction was determined from the slope of a plot of relative fluorescence units vs time (minutes) and then plotted against inhibitor concentration to estimate IC50 from log [Inhibitor] vs Response, Variable Slope model in GraphPad Prism from GraphPad Software (San Diego, Calif.).
The Omnia Assay Protocol for potency assessment against JAK3 is performed in a substantially similar manner as that described in Example 25 above except that the modified JAK3-optimized reagent conditions are: • [JAK3]=5 nM, [ATP]=5 μM, [Y12-Sox]=5 μM (ATP KMapp ˜[…]).

The next experiment concerns the target BTK (Homo sapiens, UniProt Q06187). Kind of experiment: Omnia assay for potency against BTK. The settings on record: read-out: BTK Inhibition.
Description: as §1, §2
The Omnia Assay Protocol for potency assessment against BTK is performed in a substantially similar manner as that described in Example 25 above except that the modified BTK-optimized reagent conditions are: • [BTK]=5 nM, [ATP]=[…], [Y5-Sox]=[…] (ATP KMapp ˜[…]).

In a further experiment the target is T2, EGFR (WT) (Homo sapiens, UniProt P00533).
T2 construct: purchased Invitrogen PV3872
T2 sequence (P00533 25-1210): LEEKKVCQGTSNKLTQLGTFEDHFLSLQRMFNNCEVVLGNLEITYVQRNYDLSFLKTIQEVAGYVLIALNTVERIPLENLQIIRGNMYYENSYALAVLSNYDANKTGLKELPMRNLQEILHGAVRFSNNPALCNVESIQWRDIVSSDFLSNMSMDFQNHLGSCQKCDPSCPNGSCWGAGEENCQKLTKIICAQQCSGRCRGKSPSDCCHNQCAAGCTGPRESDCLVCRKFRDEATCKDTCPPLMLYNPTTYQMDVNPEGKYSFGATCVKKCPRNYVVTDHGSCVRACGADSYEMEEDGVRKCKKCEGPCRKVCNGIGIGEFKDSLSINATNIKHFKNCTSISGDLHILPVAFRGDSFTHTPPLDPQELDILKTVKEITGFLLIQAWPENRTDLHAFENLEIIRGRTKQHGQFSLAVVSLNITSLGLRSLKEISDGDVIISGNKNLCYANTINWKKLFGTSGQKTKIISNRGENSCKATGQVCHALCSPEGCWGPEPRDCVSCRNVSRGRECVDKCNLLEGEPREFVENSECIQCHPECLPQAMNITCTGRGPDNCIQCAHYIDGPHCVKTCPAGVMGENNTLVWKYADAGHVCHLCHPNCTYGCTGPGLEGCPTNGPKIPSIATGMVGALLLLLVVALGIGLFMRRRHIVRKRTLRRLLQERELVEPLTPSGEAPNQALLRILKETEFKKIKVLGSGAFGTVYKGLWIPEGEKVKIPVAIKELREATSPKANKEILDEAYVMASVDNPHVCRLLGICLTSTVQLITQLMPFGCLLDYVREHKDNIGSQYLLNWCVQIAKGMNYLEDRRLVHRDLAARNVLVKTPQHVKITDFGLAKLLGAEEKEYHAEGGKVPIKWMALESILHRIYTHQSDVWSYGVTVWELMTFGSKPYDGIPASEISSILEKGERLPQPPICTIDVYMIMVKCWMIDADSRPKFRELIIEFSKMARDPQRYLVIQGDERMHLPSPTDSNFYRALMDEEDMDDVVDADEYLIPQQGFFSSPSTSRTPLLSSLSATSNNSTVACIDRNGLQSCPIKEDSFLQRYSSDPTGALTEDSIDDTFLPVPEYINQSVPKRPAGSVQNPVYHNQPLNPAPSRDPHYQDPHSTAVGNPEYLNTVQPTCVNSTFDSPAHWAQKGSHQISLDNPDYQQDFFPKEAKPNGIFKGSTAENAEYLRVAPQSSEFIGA
The experiment can be described thus: Omnia continuous-read kinase assay, EGFR (WT). The settings on record: read-out: EGFR inhibtion.
Description: as §1, §2
The EGFR-WT- and EGFR T790M/L858R-modified optimized reagent conditions are: • [EGFR-WT]=5 nM, [ATP]=[…], [Y12-Sox]=[…]; and [EGFR-T790M/L858R]=3 nM, [ATP]=[…], [Y12-Sox]=[…].

Each structure is given as a SMILES string.

BTK, sequence (Q06187 whole entry): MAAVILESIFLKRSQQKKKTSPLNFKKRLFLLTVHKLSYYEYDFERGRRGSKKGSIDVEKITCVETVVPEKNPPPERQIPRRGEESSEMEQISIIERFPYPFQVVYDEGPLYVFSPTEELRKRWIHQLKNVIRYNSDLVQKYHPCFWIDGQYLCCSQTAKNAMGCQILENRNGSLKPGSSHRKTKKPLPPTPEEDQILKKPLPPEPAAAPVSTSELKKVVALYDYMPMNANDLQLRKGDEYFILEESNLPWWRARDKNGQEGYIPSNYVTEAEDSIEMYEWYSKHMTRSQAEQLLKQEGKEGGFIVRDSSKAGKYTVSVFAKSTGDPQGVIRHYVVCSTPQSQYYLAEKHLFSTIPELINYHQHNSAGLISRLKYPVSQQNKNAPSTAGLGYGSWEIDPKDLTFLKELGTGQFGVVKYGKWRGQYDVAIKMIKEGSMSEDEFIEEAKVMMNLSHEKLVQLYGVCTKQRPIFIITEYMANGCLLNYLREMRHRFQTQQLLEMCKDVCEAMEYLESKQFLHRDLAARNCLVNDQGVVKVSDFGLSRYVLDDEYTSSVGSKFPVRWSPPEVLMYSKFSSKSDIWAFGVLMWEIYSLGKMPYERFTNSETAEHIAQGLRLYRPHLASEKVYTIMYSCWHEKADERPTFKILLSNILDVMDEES

Turning to `CC(Cl)C(=O)Nc1cccc(Nc2cc(Nc3ccc(F)c(Cl)c3)ncn2)c1` (centres unmarked) [I-50, 2-chloro-N-[3-(6-{3-chloro-4-fluorophenyl}aminopyrimidin-4-yl)aminophenyl]propionamide], the IC50 on JAK3 was in the range of 100 to 1000 nM; at BTK, 1000 to 10000 nM.
Turning to `CN(C)C/C=C/C(=O)Nc1cccc(Nc2cc(Nc3ccc(Oc4ccccc4)cc3)ncn2)c1` [I-62, (E)-N-3-[6-(4-phenoxyphenyl)amino-pyrimidin-4-yl]aminophenyl-4-(dimethylamino)but-2-enamide], the IC50 at JAK3 was 100 to 1000 nM; at BTK it was at most 10 nM.
Regarding `C#Cc1cccc(Nc2cc(Nc3cccc(NC(=O)C=C)c3)ncn2)c1` [I-68, N-3-[6-(3-ethynylphenylamino)-pyrimidin-4-yl]aminophenyl-2-propenamide], the IC50 is at most 10 nM on JAK3, at most 10 nM at EGFR (WT) and 10 to 100 nM on BTK.
Regarding `O=C(CCl)Nc1cccc(Nc2cc(Oc3ccc(NC(=O)Nc4ccc(Cl)c(C(F)(F)F)c4)cc3)ncn2)c1` [I-69, N-3-[6-(4-[4-[[4-chloro-3-(trifluoromethyl)phenyl]amino]-carbonyl]amino)phenoxypyrimidin-4-yl]aminophenylchloroacetamide], the IC50 fell in the range of 100 to 1000 nM on JAK3, 10 to 100 nM on EGFR (WT) and 100 to 1000 nM at BTK.
On to `C=CC(=O)N1CCC(Nc2cc(Nc3ccc(F)c(Cl)c3)ncn2)C1` (centres unmarked) [I-70, 1-(3-(6-(3-chloro-4-fluorophenyamino)pyrimidin-4-ylamino)pyrrolidin-1-yl)prop-2-en-1-one], for which the figures for the IC50 on JAK3, at EGFR (WT) and on BTK were 100 to 1000 nM, at most 10 nM and 100 to 1000 nM, respectively.
Regarding `C=CC(=O)N1CCCC(Nc2cc(Nc3ccc(F)c(Cl)c3)ncn2)C1` (centres unmarked) [I-71, 1-(3-(6-(3-chloro-4-fluorophenyamino)pyrimidin-4-ylamino)piperidin-1-yl)prop-2-en-1-one], the IC50 on JAK3 is 1000 to 10000 nM; on EGFR (WT), at most 10 nM; at BTK it was 1000 to 10000 nM.
Consider `CN(C)C/C=C/C(=O)Nc1cccc(Nc2cc(Nc3ccccc3)ncn2)n1` [I-73, (E)-4-(dimethylamino)-N-(6-(6-(phenylamino)pyrimidin-4-ylamino)pyridine-2-yl)but-2-enamide], for which the IC50 at JAK3, at EGFR (WT) and at BTK was at most 10 nM in each case.
On to `C=CC(=O)Nc1cccc(Nc2cc(Nc3cccc(Oc4ccccc4)c3)ncn2)c1` [I-75, N-(3-(6-(3-phenoxyphenylamino)pyrimidin-4-ylamino)phenyl)acrylamide], for which the results for the IC50 on JAK3, at EGFR (WT) and at BTK were 100 to 1000 nM, at most 10 nM and at most 10 nM, respectively.
As to `C=CC(=O)Nc1ccc(Nc2cc(Nc3ccc(Oc4ccccc4)cc3)ncn2)cc1` [I-80, N-4-[6-(4-phenoxyphenyl)amino-pyrimidin-4-yl]aminophenylpropenamide], the IC50 at JAK3 was at least 10000 nM; on EGFR (WT) it was 100 to 1000 nM; at BTK it was 1000 to 10000 nM.
Take `C=C(C)C(=O)c1cccc(Nc2cc(Nc3ccc(Oc4ccccc4)cc3)ncn2)c1` [I-83, 2-methyl-1-(3-(6-(4-phenoxyphenylamino)pyrimidin-4-ylamino)phenyl)prop-2-en-1-one]: the IC50 on EGFR (WT) and at BTK was at most 10 nM in each case.
In the case of `C=C(C#N)C(O)c1cccc(Nc2cc(Nc3ccc(Oc4ccccc4)cc3)ncn2)c1` (centres unmarked) [I-84], the IC50 was at least 10000 nM at JAK3, 10 to 100 nM at EGFR (WT) and 1000 to 10000 nM at BTK.
For `C=CC(=O)N1CCC(Nc2cc(Nc3ccc(Oc4ccccc4)cc3)ncn2)C1` (centres unmarked) [I-85, 1-(3-(6-(4-phenoxyphenylamino)pyrimidin-4-ylamino)pyrrolidin-1-yl)prop-2-en-1-one] the same measures were 1000 to 10000 nM, 10 to 100 nM and 10 to 100 nM.
Regarding `CC(C)=CC(=O)c1cccc(Nc2cc(Nc3ccc(Oc4ccccc4)cc3)ncn2)c1` [I-87, 3-methyl-1-(3-(6-(4-phenoxyphenylamino)pyrimidin-4-ylamino)phenyl)but-2-en-1-one], the IC50 is 10 to 100 nM at EGFR (WT) and at least 10000 nM on BTK.
Taken in the same sequence, the figures for `C=CC(=O)Nc1cccc(Nc2cc(Oc3ccc(OC)cc3)ncn2)n1` [I-91, N-(6-(6-(4-methoxyphenoxy)pyrimidin-4-ylamino)pyridine-2-yl)acrylamide] were at most 10 nM and at most 10 nM.
`CN(C)C/C=C/C(=O)Nc1cccc(Nc2cc(Oc3ccc(F)c(Cl)c3)ncn2)c1` [I-92)]: the IC50 on EGFR (WT) was at most 10 nM.
For the compound `CN(C)C/C=C/C(=O)Nc1cccc(Nc2cc(Oc3ccc(F)c(Cl)c3)ncn2)c1` [I-92, (E)-N-(3-(6-(3-chloro-4-fluorophenoxy)pyrimidin-4-ylamino)phenyl)-4-(dimethylamino)but-2-enamide], the IC50 on JAK3 and on BTK was 10 to 100 nM each time.
In the case of `C=CC(=O)Nc1cccc(Nc2cc(Oc3ccc(Oc4ccccc4)cc3)ncn2)c1` [I-97, N-(3-(6-(4-phenoxyphenoxy)pyrimidin-4-ylamino)phenyl)acrylamide], the IC50 on EGFR (WT) is at most 10 nM; at BTK, 100 to 1000 nM.
With `C=CC(=O)Nc1cc(Nc2cc(Oc3ccc(Oc4ccccc4)cc3)ncn2)cc(C(=O)NCCOC)c1` [I-102, 3-acrylamido-N-(2-methoxyethyl)-5-(6-(4-phenoxyphenoxy)pyrimidin-4-ylamino)benzamide], the IC50 at EGFR (WT) is at most 10 nM; on BTK, 10 to 100 nM.
For `C=CC(=O)Nc1cccc(Nc2cc(Sc3ccc(Oc4ccccc4)cc3)ncn2)c1` [I-103, N-(3-(6-(4-phenoxyphenylthio)pyrimidin-4-ylamino)phenyl)acrylamide] the same measures were at most 10 nM and 100 to 1000 nM.
Taken in the same sequence, the figures for `C=CC(=O)N1CC(C)(C)Oc2ccc(Nc3cc(Oc4cccc(Cl)c4)ncn3)cc21` [I-104, 1-(6-(6-(3-chlorophenoxy)pyrimidin-4-ylamino)-2,2-dimethyl-2H-benzo[b][1,4]oxazin-4(3H)-yl)prop-2-en-1-one] were at most 10 nM and at most 10 nM.
Turning to `C=CC(=O)Nc1cc(Nc2cc(Oc3cccc(Cl)c3)ncn2)ccc1N1CCOCC1` [I-105, N-(2-morpholino-5-(6-(3-chlorophenoxy)pyrimidin-4-ylamino)phenyl)acrylamide], the IC50 on EGFR (WT) is at most 10 nM; on BTK, 10 to 100 nM.

For the origin of these results see patent publication US9296704B2, “Substituted pyrimidines as protein kinase inhibitors” (CELGENE AVILOMICS RESEARCH, INC., priority 2007, dated 2016).
